{"source": "the supplement of paper PMC9262897", "about": "“Low-cost anti-mycobacterial drug discovery using engineered E. coli” (Nature Communications, 2022)", "test_in_all_cases": "growth (OD600 after 24 h); higher = more growth", "key": {"∆yeeO": {"tested_on": "∆yeeO", "experimental": "(§1)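 E. coli BW25113 ΔaraC (Efflux+) or efflux-pump deletion strains (ΔtolC ΔentC, ΔemrE, ΔmdtI, ΔyeeO, ΔmdtK, ΔmdtM) diluted 1:100 in M9-based medium with a drug dilution series. Growth is read as OD600 after 24 h; 3 biological replicates.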"}, "∆mdtM": {"tested_on": "∆mdtM", "experimental": "as §1"}, "Efflux+": {"tested_on": "Efflux+", "experimental": "as §1"}, "∆mdtI": {"tested_on": "∆mdtI", "experimental": "as §1"}, "∆tolC ∆entC": {"tested_on": "∆tolC ∆entC", "experimental": "as §1"}, "∆mdtK": {"tested_on": "∆mdtK", "experimental": "as §1"}, "∆emrE": {"tested_on": "∆emrE", "experimental": "as §1"}}, "note": "± gives the standard deviation of the averaged measurements.", "data": [{"smiles": "Nc1nc2ccc(OC(F)(F)F)cc2s1", "note": "[Riluzole]", "values": [{"measurement": "growth", "setting": "∆yeeO; drug 16 µM", "result": "0.958 ± 0.011"}, {"measurement": "growth", "setting": "∆yeeO; drug 31 µM", "result": "0.905 ± 0.046"}, {"measurement": "growth", "setting": "∆yeeO; drug 62 µM", "result": "0.851 ± 0.057"}, {"measurement": "growth", "setting": "∆yeeO; drug 125 µM", "result": "0.909 ± 0.018"}, {"measurement": "growth", "setting": "∆yeeO; drug 250 µM", "result": "0.857 ± 0.035"}, {"measurement": "growth", "setting": "∆yeeO; drug 500 µM", "result": "0.703 ± 0.019"}, {"measurement": "growth", "setting": "∆mdtM; drug 16 µM", "result": "0.802 ± 0.01"}, {"measurement": "growth", "setting": "∆mdtM; drug 31 µM", "result": "0.79 ± 0.015"}, {"measurement": "growth", "setting": "∆mdtM; drug 62 µM", "result": "0.776 ± 0.016"}, {"measurement": "growth", "setting": "∆mdtM; drug 125 µM", "result": "0.74 ± 0.02"}, {"measurement": "growth", "setting": "∆mdtM; drug 250 µM", "result": "0.785 ± 0.043"}, {"measurement": "growth", "setting": "∆mdtM; drug 500 µM", "result": "0.527 ± 0.042"}, {"measurement": "growth", "setting": "Efflux+; drug 16 µM", "result": "1.09 ± 0.017"}, {"measurement": "growth", "setting": "Efflux+; drug 31 µM", "result": "1.038 ± 0.0013"}, {"measurement": "growth", "setting": "Efflux+; drug 62 µM", "result": "0.997 ± 0.033"}, {"measurement": "growth", "setting": "Efflux+; drug 125 µM", "result": "0.978 ± 0.019"}, {"measurement": "growth", "setting": "Efflux+; drug 250 µM", "result": "0.973 ± 0.024"}, {"measurement": "growth", "setting": "Efflux+; drug 500 µM", "result": "0.74 ± 0.04"}, {"measurement": "growth", "setting": "∆mdtI; drug 16 µM", "result": "1.06 ± 0.02"}, {"measurement": "growth", "setting": "∆mdtI; drug 31 µM", "result": "1.045 ± 0.0025"}, {"measurement": "growth", "setting": "∆mdtI; drug 62 µM", "result": "1.01 ± 0.021"}, {"measurement": "growth", "setting": "∆mdtI; drug 125 µM", "result": "0.981 ± 0.029"}, {"measurement": "growth", "setting": "∆mdtI; drug 250 µM", "result": "0.9767 ± 0.0089"}, {"measurement": "growth", "setting": "∆mdtI; drug 500 µM", "result": "0.634 ± 0.072"}, {"measurement": "growth", "setting": "∆tolC ∆entC; drug 16 µM", "result": "1.05 ± 0.014"}, {"measurement": "growth", "setting": "∆tolC ∆entC; drug 31 µM", "result": "1.09 ± 0.018"}, {"measurement": "growth", "setting": "∆tolC ∆entC; drug 62 µM", "result": "1.02 ± 0.023"}, {"measurement": "growth", "setting": "∆tolC ∆entC; drug 125 µM", "result": "0.97 ± 0.018"}, {"measurement": "growth", "setting": "∆tolC ∆entC; drug 250 µM", "result": "0.634 ± 0.019"}, {"measurement": "growth", "setting": "∆tolC ∆entC; drug 500 µM", "result": "0.0507 ± 0.0015"}, {"measurement": "growth", "setting": "∆mdtK; drug 16 µM", "result": "0.831 ± 0.072"}, {"measurement": "growth", "setting": "∆mdtK; drug 31 µM", "result": "0.799 ± 0.032"}, {"measurement": "growth", "setting": "∆mdtK; drug 62 µM", "result": "0.788 ± 0.016"}, {"measurement": "growth", "setting": "∆mdtK; drug 125 µM", "result": "0.749 ± 0.054"}, {"measurement": "growth", "setting": "∆mdtK; drug 250 µM", "result": "0.741 ± 0.017"}, {"measurement": "growth", "setting": "∆mdtK; drug 500 µM", "result": "0.669 ± 0.011"}, {"measurement": "growth", "setting": "∆emrE; drug 16 µM", "result": "0.961 ± 0.026"}, {"measurement": "growth", "setting": "∆emrE; drug 31 µM", "result": "1.06 ± 0.066"}, {"measurement": "growth", "setting": "∆emrE; drug 62 µM", "result": "1.08 ± 0.037"}, {"measurement": "growth", "setting": "∆emrE; drug 125 µM", "result": "1.12 ± 0.039"}, {"measurement": "growth", "setting": "∆emrE; drug 250 µM", "result": "1.09 ± 0.053"}, {"measurement": "growth", "setting": "∆emrE; drug 500 µM", "result": "0.8264 ± 0.0056"}]}]}
